In ChEMBL document CHEMBL1133432, “Probes for imidazoline binding sites: synthesis and evaluation of a selective, irreversible I2 ligand” (Bioorg Med Chem Lett, 2000):

Experiments:
[1] = molecular target: T1, Adrenergic receptor alpha-2 (Rattus norvegicus, UniProt P22086+P19328+P22909); experiment: Inhibition of 1 nM [3H]RX-821002 binding to rat whole brain membrane Alpha-2 adrenergic receptors
T1 sequence (P22086 whole entry): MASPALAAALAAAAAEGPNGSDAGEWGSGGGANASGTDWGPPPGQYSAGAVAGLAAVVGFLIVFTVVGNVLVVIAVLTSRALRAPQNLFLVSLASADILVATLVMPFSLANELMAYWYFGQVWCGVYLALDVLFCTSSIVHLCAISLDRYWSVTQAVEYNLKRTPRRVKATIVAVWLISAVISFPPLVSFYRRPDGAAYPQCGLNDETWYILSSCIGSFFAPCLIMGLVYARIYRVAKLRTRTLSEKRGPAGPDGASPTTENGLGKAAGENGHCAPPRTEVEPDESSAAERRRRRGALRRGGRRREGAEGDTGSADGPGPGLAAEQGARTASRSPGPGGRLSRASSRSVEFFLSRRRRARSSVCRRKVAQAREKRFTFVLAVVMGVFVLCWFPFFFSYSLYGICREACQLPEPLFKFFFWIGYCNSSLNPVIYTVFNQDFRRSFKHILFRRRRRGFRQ
T1 sequence (P19328 whole entry): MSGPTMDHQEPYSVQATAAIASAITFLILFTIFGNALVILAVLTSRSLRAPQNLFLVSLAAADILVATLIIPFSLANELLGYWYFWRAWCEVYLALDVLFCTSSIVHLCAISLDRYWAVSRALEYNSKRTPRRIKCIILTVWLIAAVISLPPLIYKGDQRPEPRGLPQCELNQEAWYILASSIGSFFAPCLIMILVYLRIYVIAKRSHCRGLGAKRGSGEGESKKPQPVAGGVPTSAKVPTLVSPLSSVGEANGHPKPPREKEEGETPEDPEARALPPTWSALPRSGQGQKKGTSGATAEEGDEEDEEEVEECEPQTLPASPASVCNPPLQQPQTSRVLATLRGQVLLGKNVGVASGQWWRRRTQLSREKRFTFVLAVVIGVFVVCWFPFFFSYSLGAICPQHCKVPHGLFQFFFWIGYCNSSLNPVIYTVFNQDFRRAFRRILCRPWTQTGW
T1 sequence (P22909 whole entry): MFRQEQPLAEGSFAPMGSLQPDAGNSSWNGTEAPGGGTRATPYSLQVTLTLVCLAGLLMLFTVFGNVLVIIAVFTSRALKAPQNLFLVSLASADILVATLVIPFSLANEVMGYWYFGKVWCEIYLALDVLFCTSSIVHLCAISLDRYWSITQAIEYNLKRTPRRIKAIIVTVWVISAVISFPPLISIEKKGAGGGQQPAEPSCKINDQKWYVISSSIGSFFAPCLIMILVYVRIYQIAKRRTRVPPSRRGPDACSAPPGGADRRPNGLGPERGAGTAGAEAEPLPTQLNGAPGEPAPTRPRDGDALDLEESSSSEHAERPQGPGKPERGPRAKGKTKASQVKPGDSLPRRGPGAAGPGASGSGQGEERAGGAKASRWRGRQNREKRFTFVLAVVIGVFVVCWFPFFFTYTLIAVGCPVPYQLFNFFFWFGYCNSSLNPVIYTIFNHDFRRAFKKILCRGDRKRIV

[2] = Inhibition of 1 nM [3H]2-BFI binding to rat whole brain membrane imidazoline receptor I-2

Compound | Ki [1] | Ki [2]
N#CSc1ccc2oc(C3=NCCN3)cc2c1 | 16300 nM | 2.3 nM
c1ccc2oc(C3=NCCN3)cc2c1 | 1900 nM | 1.7 nM
